Source: patent US20250205342A1, “IRAK DEGRADERS AND USES THEREOF” (Kymera Therapeutics, Inc., priority 2022, published 2025)

Columns and labels:
IRAK4 [1] = molecular target: T1, IRAK4 (Homo sapiens, UniProt Q9NWZ3); test: IRAK4 degradation in OCI-LY10 (MSD, Meso Scale Discovery); assay type: cell-based; design: endogenous in cells; host or cells: OCI-LY10; conditions: OCI-LY10 cells, 24 h
T1 sequence (Q9NWZ3 1-460): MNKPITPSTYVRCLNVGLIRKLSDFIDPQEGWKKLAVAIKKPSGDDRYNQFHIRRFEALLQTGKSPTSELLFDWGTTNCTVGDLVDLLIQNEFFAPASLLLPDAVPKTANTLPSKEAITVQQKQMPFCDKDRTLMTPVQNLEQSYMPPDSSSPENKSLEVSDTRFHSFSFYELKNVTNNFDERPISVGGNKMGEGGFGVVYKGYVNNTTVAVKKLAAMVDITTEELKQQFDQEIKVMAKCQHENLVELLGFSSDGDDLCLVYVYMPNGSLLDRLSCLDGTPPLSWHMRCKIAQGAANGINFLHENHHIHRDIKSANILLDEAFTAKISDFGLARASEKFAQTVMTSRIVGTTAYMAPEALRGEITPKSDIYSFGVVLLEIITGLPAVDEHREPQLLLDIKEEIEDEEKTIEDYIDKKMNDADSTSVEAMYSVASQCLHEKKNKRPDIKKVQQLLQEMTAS
Protocol: Degradation of IRAK4 in OCI-LY10 was quantitatively measured using Meso Scale Discovery technology. OCI-LY10 cells were seeded in 96-well plates (Corning 3799) with a density of 300,000 cells per well in 100 μL fresh media. Compounds were then added to the assay plates with a final top concentration of 1 to 10 μM in a 1:3 dilution series with total of 8 doses. The assay plates were then incubated for 4 to 24 hours at 37° C. under 5% CO2. The assay plates were then centrifuged for 5 minutes and the cell pellets were treated with 100 μL/well RIPA lysis buffer (Boston BioProducts BP-115D) with proteinase inhibitors. To prepare MSD assay plates (Meso Scale Discovery Catalog number L15XA-3), the plates were coated with 2 ug/mL capture antibody (mouse Anti-IRAK4 antibody [2H9], ab119942) in PBS, at 40 μL/well. The plates were then incubated overnight at […], washed 3 times with 150 μL/well TBST buffer (Cell Signaling Technology, Catalog number 9997S) and blocked with 150 μL/well blocking buffer (Meso Scale Discovery Catalog number R^93BA-4). Cell lysates were then added to MSD assay plates and the plates were incubated at room temperature for 1 hour. The plates were then washed 3 times with 150 μL/well TBST buffer and 25 μL/well primary detection antibody (rabbit Anti-IRAK4 antibody [Y279], from Abcam. Catalog number ab32511, 1 μg/mL). The assay plates were then incubated at room temperature for 1 hour, washed 3 times with 150 μL/well TBST buffer and 25 μL/well secondary detection antibody, SULFO-TAG anti-rabbit antibody were added (anti-rabbit antibody from Meso Scale Discovery, Catalog number R^32AB-1, 1 μg/mL). The assay plates were then incubated at room temperature for 1 hour, washed 3 times with 150 μL/well TBST buffer, and 150 μL/well MSD reading buffer (Meso Scale Discovery catalog number R^92TC-2) was added. The plates were then analyzed by a MSD reader (Meso Scale Discovery, Model Quick Plex SQ 120). The data was then analyzed by software Prism 7.0 from GraphPad and the dose-depended IRAK4 degradation were fit using a three-parameter logistic equation to calculate DC50.
(§1) IRAK4 MSD degradation in OCI-LY10 results at 4 and 24 hrs and hPBMC at 20 hrs for compounds of the invention are presented in Table 3. The letter codes for IRAK4 DC50 include: A (<0.1 μM), B (0.1-1.0 μM), C(>1.0-10.0 μM), D (>10.0 μM or not determined).

IRAK4 [2] = molecular target: T1, IRAK4; test: hPBMC IRAK4 degradation flow assay (monocytes); assay type: cell-based; design: endogenous in cells; host or cells: human PBMCs (monocytes, CD14 positive gate); conditions: CD14 positive monocytes, 20 h, read-out: hPBMC monocyte DC50 at 20 h
Protocol: In the hPBMC IRAK4 degradation flow assay, frozen PBMCs were thawed into RPMI with 10% FBS and allowed to recover. On the same day as thawed, PBMCs were plated in 96 well plate, 90 μL per well. Compound plates were prepared and a 10 point, 5-fold dilution was performed with a final DMSO concentration of 0.1%. Compound 10 μL per well was added, sealed and incubated at 37° C., 5% CO2 for 20 hours (for 4 hour treatment, compounds were prepared and added the following day). Following the treatment incubation period (day 1), 1.6% PFA was added to PBMC plate and placed on plate shaker for 30 seconds and incubated for 10 mins at room temperature. Cells were spun down and washed two times with PBS/0.5% BSA, aspirated to pellet and placed into −80° C. freezer until further processing for flow. On the flow run day, PBMC plates were thawed and samples were transferred to PCR plates. The pre-perm staining cocktail (CD3 Ax488/CD8 BUV805/CD14 BUV395/CD16/56 BV711/CD19 BV785) was added to samples and incubated for 30 minutes at room temperature. Samples were washed two times and permeabilized with methanol for 10 minutes at 4° C. Samples were washed two times and the post-perm staining cocktail (CD4 PE/IRAK4 Ax647 BD #560315) was added and incubated for 30 minutes at room temperature. Samples were washed two times with PBS/BSA and run on a BD LSRFortessa. Mononuclear cells are gated by SSCH/FSCH and single cells. Monocytes are then gated through CD14 positive gate and lymphocytes are gated through CD14 negative gate. To determine absolute DC50 and max degradation values, MFI values were normalized to DMSO max and 20 hour 10 µM min control. Twenty hour dose curves were calculated using a 4 parameter logistic regression curve fit, no constraints (Top doses were removed if hook effects were observed and the bottom was constrained to 0).
as §1

Structure (SMILES)	DC50 (IRAK4 [1]) [µM]	DC50 (IRAK4 [2]) [µM]
COc1cc2nn([C@H]3CC[C@H](CNCCCCCCc4cncc(N5CCC[C@H](C(=O)Nc6ccc(=O)n(CC(=O)O)c6)C5)c4)CC3)cc2cc1NC(=O)c1cccc(C(F)(F)F)n1 [Compound I-24]	> 10	0.1 to 1
COc1cc2nn([C@H]3CC[C@H](CNCCCCc4cncc(N5CCC[C@H](C(=O)Nc6ccc(=O)n(CC(=O)O)c6)C5)c4)CC3)cc2cc1NC(=O)c1cccc(C(F)(F)F)n1 [Compound I-25]	> 10	> 10
COc1cc2nn([C@H]3CC[C@H](CNCCc4cncc(N5CCC[C@H](C(=O)Nc6ccc(=O)n(CC(=O)O)c6)C5)c4)CC3)cc2cc1NC(=O)c1cccc(C(F)(F)F)n1 [Compound I-26]	> 10	> 10
O=C(O)Cn1cc(NC(=O)[C@H]2CCCN(c3cncc(CCCCCCNC[C@H]4CC[C@H](n5cc(NC(=O)c6cnn7ccc(N8C[C@H]9C[C@@H]8CO9)nc67)c(C(F)F)n5)CC4)c3)C2)ccc1=O [Compound I-27]	> 10	> 10
O=C(O)Cn1cc(NC(=O)[C@H]2CCCN(c3cncc(CCNC[C@H]4CC[C@H](n5cc(NC(=O)c6cnn7ccc(N8C[C@H]9C[C@@H]8CO9)nc67)c(C(F)F)n5)CC4)c3)C2)ccc1=O [Compound I-28]	> 10	> 10
COc1cc2nn([C@H]3CC[C@H](CNCCOc4cncc(N5CCC[C@H](C(=O)Nc6ccc(=O)n(CC(=O)O)c6)C5)c4)CC3)cc2cc1NC(=O)c1cccc(C(F)(F)F)n1 [Compound I-29]	> 10	> 10
CCOC(=O)Cn1cc(NC(=O)[C@H]2CCCN(c3cncc(CCCCNC[C@H]4CC[C@H](n5cc6cc(NC(=O)c7cccc(C(F)(F)F)n7)c(OC)cc6n5)CC4)c3)C2)ccc1=O [Compound I-31]	> 10	> 10
CCOC(=O)Cn1cc(NC(=O)[C@H]2CCCN(c3cncc(CCCCCCNC[C@H]4CC[C@H](n5cc(NC(=O)c6cnn7ccc(N8C[C@H]9C[C@@H]8CO9)nc67)c(C(F)F)n5)CC4)c3)C2)ccc1=O [Compound I-32]	> 10	> 10
CCOC(=O)Cn1cc(NC(=O)[C@H]2CCCN(c3cncc(OCCNC[C@H]4CC[C@H](n5cc6cc(NC(=O)c7cccc(C(F)(F)F)n7)c(OC)cc6n5)CC4)c3)C2)ccc1=O [Compound I-33]	> 10	1 to 10
CCOC(=O)Cn1cc(NC(=O)[C@H]2CCCN(c3cncc(N4CCC(CN(C)C[C@H]5CC[C@H](n6cc(NC(=O)c7cnn8ccc(N9C[C@H]%10C[C@@H]9CO%10)nc78)c(C(F)F)n6)CC5)CC4)c3)C2)ccc1=O [Compound I-34]	> 10	> 10
CCOC(=O)Cn1cc(NC(=O)[C@H]2CCCN(c3cncc(CCNC[C@H]4CC[C@H](n5cc(NC(=O)c6cnn7ccc(N8C[C@H]9C[C@@H]8CO9)nc67)c(C(F)F)n5)CC4)c3)C2)ccc1=O [Compound I-36]	> 10	1 to 10
O=C(O)Cn1cc(NC(=O)[C@H]2CCCN(c3cncc(OCCOCCOCCOCCOCCNC[C@H]4CC[C@H](n5cc(NC(=O)c6cnn7ccc(N8C[C@H]9C[C@@H]8CO9)nc67)c(C(F)F)n5)CC4)c3)C2)ccc1=O [Compound I-37]	> 10	1 to 10
COc1cc2nn([C@H]3CC[C@H](CNCCOCCOCCOCCOCCOc4cncc(N5CCC[C@H](C(=O)Nc6ccc(=O)n(CC(=O)O)c6)C5)c4)CC3)cc2cc1NC(=O)c1cccc(C(F)(F)F)n1 [Compound I-38]	> 10	1 to 10
COc1cc2nn([C@H]3CC[C@H](CNCCOCCOCCOc4cncc(N5CCC[C@H](C(=O)Nc6ccc(=O)n(CC(=O)O)c6)C5)c4)CC3)cc2cc1NC(=O)c1cccc(C(F)(F)F)n1 [Compound I-40]	> 10	> 10
CCOC(=O)Cn1cc(NC(=O)[C@H]2CCCN(c3cncc(OCCOCCOCCNC[C@H]4CC[C@H](n5cc6cc(NC(=O)c7cccc(C(F)(F)F)n7)c(OC)cc6n5)CC4)c3)C2)ccc1=O [Compound I-41]	> 10	> 10
CCOC(=O)Cn1cc(NC(=O)[C@H]2CCCN(c3cncc(CCCCCCNC[C@H]4CC[C@H](n5cc6cc(NC(=O)c7cccc(C(F)(F)F)n7)c(OC)cc6n5)CC4)c3)C2)ccc1=O [Compound I-42]	> 10	< 0.1
CCOC(=O)Cn1cc(NC(=O)[C@H]2CCCN(c3cncc(OCCOCCOCCOCCOCCNC[C@H]4CC[C@H](n5cc6cc(NC(=O)c7cccc(C(F)(F)F)c7)c(OC)cc6n5)CC4)c3)C2)ccc1=O [Compound I-43]	> 10	1 to 10
O=C(O)Cn1cc(NC(=O)[C@H]2CCCN(c3cncc(OCCOCCOCCNC[C@H]4CC[C@H](n5cc(NC(=O)c6cnn7ccc(N8C[C@H]9C[C@@H]8CO9)nc67)c(C(F)F)n5)CC4)c3)C2)ccc1=O [Compound I-44]	> 10	> 10
CCOC(=O)Cn1cc(NC(=O)[C@H]2CCCN(c3cncc(OCCOCCOCCNC[C@H]4CC[C@H](n5cc(NC(=O)c6cnn7ccc(N8C[C@H]9C[C@@H]8CO9)nc67)c(C(F)F)n5)CC4)c3)C2)ccc1=O [Compound I-45]	> 10	1 to 10
O=C(O)Cn1cc(NC(=O)[C@H]2CCCN(c3cncc(OCCCCNC[C@H]4CC[C@H](n5cc(NC(=O)c6cnn7ccc(N8C[C@H]9C[C@@H]8CO9)nc67)c(C(F)F)n5)CC4)c3)C2)ccc1=O [Compound I-46]	> 10	> 10
CCOC(=O)Cn1cc(NC(=O)[C@H]2CCCN(c3cncc(OCCOCCOCCOCCOCCNC[C@H]4CC[C@H](n5cc(NC(=O)c6cnn7ccc(N8C[C@H]9C[C@@H]8CO9)nc67)c(C(F)F)n5)CC4)c3)C2)ccc1=O [Compound I-47]	> 10	> 10
CCOC(=O)Cn1cc(NC(=O)[C@H]2CCCN(c3cncc(OCCNC[C@H]4CC[C@H](n5cc(NC(=O)c6cnn7ccc(N8C[C@H]9C[C@@H]8CO9)nc67)c(C(F)F)n5)CC4)c3)C2)ccc1=O [Compound I-48]	> 10	1 to 10
COC(=O)Cn1cc(NC(=O)c2cccc(-c3cncc(CCCCCCCCCNC[C@H]4CC[C@H](n5cc6cc(NC(=O)c7cccc(C(F)(F)F)n7)c(C(C)(C)O)cc6n5)CC4)c3)c2)ccc1=O [Compound I-49]	0.1 to 1	0.1 to 1
CC(C)(O)c1cc2nn([C@H]3CC[C@H](CNCCCCCCCCCc4cccc5c(-c6cccc(C(=O)Nc7ccc(=O)n(CC(=O)O)c7)c6)cncc45)CC3)cc2cc1NC(=O)c1cccc(C(F)(F)F)n1 [Compound I-50]	> 10	> 10
